Measured values reported in paper PMC8516514 (Clinical Infectious Diseases: An Official Publication of …, 2020).
Several values for one entry are separate records, joined by “and”; a condition that tells them apart may be missing. Identical values can stand only once.

Tests used:
[1] = baseline ALT 27–45 IU/mL; cited from earlier work
[2] = Phase Ia tolerability in healthy subjects; type: in vivo, human; conditions: 9 days, unpublished observations
[3] = tested on: HBV
[4] = tested on: HBV; test: Change in serum HBV DNA, phase 1b study in patients with chronic HBV infection; type: in vivo, human
[5] = Phase Ia pharmacokinetics of GLS4 in healthy subjects; type: in vivo, human; conditions: for mean steady-state Cmin: unpublished observations
[6] = Safety and tolerability in patients with chronic HBV infection; type: in vivo, human; conditions: for effect of silibinin and glutathione treatment on ALT flares: subjects with ALT flares, decline in ALT level
[7] = tested on: HBV; test: Change in serum HBsAg, phase 1b study in patients with chronic HBV infection; type: in vivo, human
[8] = preclinical study in dogs; cited from earlier work
[9] = tested on: HBV in HepG2.2.15 cell; conditions: cited from earlier work
[10] = tested on: HBV; test: Change in serum HBV pgRNA, phase 1b study in patients with chronic HBV infection; type: in vivo, human
[11] = Plasma pharmacokinetics of GLS4 in patients with chronic HBV infection; type: in vivo, human; conditions: for AUC0–24 / AUC0–t / Cmax / Ctrough / t1/2 / Df (degree of fluctuation): mean (CV)
[12] = tested on: HBV; test: Change in serum HBcrAg, phase 1b study in patients with chronic HBV infection; type: in vivo, human
[13] = tested on: HBV; test: Change in serum HBeAg, phase 1b study in patients with chronic HBV infection; type: in vivo, human
[14] = tested on: HBV; conditions: after NVR 3–778 treatment; cited from earlier work
[15] = tested on: HBV; conditions: cited from earlier work
[16] = cohort A: GLS4 120 mg/day + ritonavir 100 mg/day
[17] = cohort B: GLS4 240 mg/day + ritonavir 100 mg/day
[18] = cohort A: GLS4 120 mg/day + ritonavir 100 mg/day, n=8
[19] = cohort B: GLS4 240 mg/day + ritonavir 100 mg/day, n=8
[20] = cohort A (GLS4 120 mg/day + ritonavir 100 mg/day), Day 1 (24 Hours)
[21] = cohort A (GLS4 120 mg/day + ritonavir 100 mg/day), Day 28 (24 Hours)
[22] = cohort A (GLS4 120 mg/day + ritonavir 100 mg/day), Day 28 (120 Hours)
[23] = cohort B (GLS4 240 mg/day + ritonavir 100 mg/day), Day 1 (24 Hours)
[24] = cohort B (GLS4 240 mg/day + ritonavir 100 mg/day), Day 28 (24 Hours)
[25] = cohort B (GLS4 240 mg/day + ritonavir 100 mg/day), Day 28 (120 Hours)
[26] = cohort C: entecavir 0.5 mg/day, n=8

O=C(NCc1cnc(C(F)(F)F)s1)c1ccc2c(c1)NC(=O)c1ccccc1S2(=O)=O [ABI-H0731]
ALT flare in phase I clinical study [1]: without ALT flare

CCOC(=O)C1=C(CN2CCOCC2)NC(c2nccs2)=NC1c1ccc(F)cc1Br (centres unmarked) [GLS4]
tolerability of GLS4 (120 or 240 mg) in combination with 100 mg ritonavir [2]: tolerated | efficacy in patients resistant to lamivudine or adefovir dipivoxil treatment ([3]; cohort A: patient 013, cohort B: patient 020): effective | GLS4 resistance among patients ([3]; cohorts A and B, 28 days of treatment): not observed | decline in HBV DNA levels in patients with poor response ([4]; cohort A (GLS4 120 mg/day + ritonavir 100 mg/day), patients 003, 005 and 022): < 0.5 log10 IU/mL | mean decline in HBV DNA after 28 days of treatment [4, 16]: −1.42 log10 IU/mL | mean decline in HBV DNA after 28 days of treatment [4, 17]: −2.13 log10 IU/mL | mean change in HBV DNA following GLS4 treatment ([4]; cohorts A and B (GLS4 120 or 240 mg/day + ritonavir 100 mg/day, 28 days)): −1.42 to −2.13 log10 IU/mL | mean steady-state Cmin ([5]; GLS4 120 mg/day + ritonavir 100 mg/day for 9 days): 0.1879 µg/mL | mean steady-state Cmin ([5]; GLS4 240 mg/day + ritonavir 100 mg/day for 9 days): 0.3007 µg/mL | t1/2 of GLS4 monotherapy ([5]; without ritonavir, data not shown): 1.09 to 15.8 h | tolerability in patients with chronic HBV infection ([6]; 120 mg GLS4 (+ ritonavir 100 mg), 28 days): tolerated | frequency of grade 3–4 adverse reactions [6, 18]: 2 | patients who experienced an adverse reaction [6, 18]: 5 | patients withdrawn due to ALT flare [6, 18]: 1 and 1/8 | subjects with alanine aminotransferase flare [6, 18]: 2 and 2/8 | frequency of grade 3–4 adverse reactions [6, 19]: 7 | patients who experienced an adverse reaction [6, 19]: 6 | patients withdrawn due to ALT flare [6, 19]: 2 and 2/8 | presence of SAEs [6, 19]: 1 | subjects with alanine aminotransferase flare [6, 19]: 3 and 3/8 | mean decline in HBsAg after 28 days of treatment [7, 16]: −0.06 log10 IU/mL | mean decline in HBsAg after 28 days of treatment [7, 17]: −0.14 log10 IU/mL | tolerability [8]: well tolerated | 90% effective concentration (EC90) ([9]; HepG2.2.15 cell, after correction with Human plasma protein binding): 0.0558 mg/L | anti-HBV activity in vitro compared with Bay 41–4109 ([9]; in vitro): better anti-HBV activity in vitro than Bay 41–4109 | mean decline in pgRNA after 28 days of treatment [10, 16]: −0.75 log10 copies/mL | mean decline in pgRNA after 28 days of treatment [10, 17]: −1.78 log10 copies/mL | Median Tmax (minimum–maximum) [11, 20]: 3 (1.5,4) hours | AUC0–24 [11, 20]: 4268 (27) ng × hours/mL | AUC0–t [11, 20]: 4268 (27) ng × hours/mL | Cmax [11, 20]: 885 (27) ng/mL | Median Tmax (minimum–maximum) [11, 21]: 3 (0.5, 4) hours | AUC0–24 [11, 21]: 7871 (56) ng × hours/mL | AUC0–t [11, 21]: 7871(56) ng × hours/mL | Cmax [11, 21]: 865 (66) ng/mL | Ctrough [11, 21]: 218(59) ng/mL | t1/2 [11, 21]: 32.1(11.7) hours | Median Tmax (minimum–maximum) [11, 22]: 3 (0.5, 4) hours | AUC0–24 [11, 22]: 7871 (56) ng × hours/mL | Cmax [11, 22]: 865 (66) ng/mL | Df (degree of fluctuation) [11, 22]: 204 (36) % | t1/2 [11, 22]: 64.2 (14.8) hours | Median Tmax (minimum–maximum) [11, 23]: 3.5 (2, 4) hours | AUC0–24 [11, 23]: 8055 (34) ng × hours/mL | AUC0–t [11, 23]: 8055 (34) ng × hours/mL | Cmax [11, 23]: 1447 (39) ng/mL | t1/2 [11, 23]: 10.6 (3.3) hours | Median Tmax (minimum–maximum) [11, 24]: 3 (2, 4) hours | Cmax [11, 24]: 1461 (24) ng/mL | Ctrough [11, 24]: 205(63) ng/mL | t1/2 [11, 24]: 16.3(7.6) hours | Median Tmax (minimum–maximum) [11, 25]: 3 (2, 4) hours | Cmax [11, 25]: 1461 (24) ng/mL | Df (degree of fluctuation) [11, 25]: 265 (33) % | t1/2 [11, 25]: 67.3 (24.2) hours | accumulation rate with AUC0–24 (day 28 vs day 1) ([11]; cohorts A and B): 1.6–2.0 | accumulation rate with Cmax (day 28 vs day 1) ([11]; cohorts A and B): 1.1–1.2 | accumulation rate ([11]; cohorts A and B, day 28 vs day 1, AUC0–24 or Cmax): 1.1–2.0 | time to maximum GLS4 concentration (Tmax) ([11]; cohorts A and B, first and last dose (days 1 and 28), with ritonavir): 3–3.5 hours and ~ 3 hours | mean trough concentration (Ctrough) of GLS4 ([11]; cohorts A and B, steady state, with ritonavir 100 mg/day): 0.205 to 0.218 µg/mL | t1/2 of GLS4 when combined with ritonavir ([11]; patients, cohorts A and B): 64.2 to 67.3 h | mean decline in HBcrAg after 28 days of treatment [12, 16]: −0.23 log10 U/mL | mean decline in HBcrAg after 28 days of treatment [12, 17]: −0.5 log10 U/mL and −0.50 log10 U/mL | mean decline in HBeAg after 28 days of treatment [13, 16]: −0.25 log10 IU/mL | mean decline in HBeAg after 28 days of treatment [13, 17]: −0.30 log10 IU/mL

O=C(Nc1cc(F)c(F)c(F)c1)c1ccc(F)c(S(=O)(=O)N2CCC(O)CC2)c1 [NVR 3–778]
mean change in HBV DNA [14]: −1.43 log10 IU/mL | mean decline in HBeAg [14]: −0.09 log10 IU/mL | mean decline in HBsAg [14]: −0.02 log10 IU/mL

C=C1[C@H](CO)[C@@H](O)C[C@@H]1n1cnc2c(=O)[nH]c(N)nc21 [entecavir, reference compound]
mean decline in HBV DNA after 28 days of treatment ([4]; cohort C: entecavir 0.5 mg/day): −3.5 log10 IU/mL | patients who experienced an adverse reaction [6, 26]: 7 | patients withdrawn due to ALT flare [6, 26]: 1 | subjects with alanine aminotransferase flare [6, 26]: 3 | mean decline in HBsAg after 28 days of treatment ([7]; cohort C: entecavir 0.5 mg/day): −0.33 log10 IU/mL | mean decline in pgRNA after 28 days of treatment ([10]; cohort C: entecavir 0.5 mg/day): −0.96 log10 copies/mL | mean decline in HBcrAg after 28 days of treatment ([12]; cohort C: entecavir 0.5 mg/day): −0.44 log10 U/mL

N[C@@H](CCC(=O)N[C@@H](CS)C(=O)NCC(=O)O)C(=O)O [glutathione, reference compound]
effect of silibinin and glutathione treatment on ALT flares [6]: effective in reducing ALT flares | antiviral effects [15]: no antiviral effects

COc1cc(C2Oc3cc([C@H]4Oc5cc(O)cc(O)c5C(=O)[C@@H]4O)ccc3OC2CO)ccc1O (some centres unmarked) [silibinin, reference compound]
effect of silibinin and glutathione treatment on ALT flares [6]: effective in reducing ALT flares | antiviral effects [15]: no antiviral effects
